In BindingDB's records for doi:10.1016/j.bmcl.2010.11.060 (Msd, 2010):

Assay: Inhibition of MCP1-mediated human THP cell migration

SMILES | IC50 [µM]
O=c1[nH]ccc2c(S(=O)(=O)N3CCCNCC3)cccc12 | 6.92
Nc1nccc2cc(CNCCc3ccccc3)ccc12 | > 31.6
C[C@@H](N)[C@H]1CC[C@H](C(=O)Nc2ccncc2)CC1 [4-[(1R)-1-aminoethyl]-N-(pyridin-4-yl)cyclohexane-1-carboxamide] | 2.63
O=S(=O)(c1cccc2cnccc12)N1CCCNCC1 [AT877] | 6.92
